Experimental data as given in US20030220406A1, “Solutizing agents” (priority 2000, published 2003).

Test: Solubilizing power: test substances added to 10 g of solubilizer until the solubility limit was reached
Type: physicochemical
Source text: Example 1 corresponds to the invention, Examples C1 and C2 are intended for comparison.

[1] = in comparison solubilizer C1 (PEG-40 Hydrogenated Castor Oil 100 % by weight)
[2] = in comparison solubilizer C2 (Cocoeth-8 100 % by weight)
[3] = in solubilizer of Example 1 (Cocoeth-8 40, PPG1-PEG9 Lauryl Glycol Ether 30, PEG-40 Hydrogenated Castor Oil 20, Water 10 % by weight)

| Compound | Solubility [1] [g/10 g solubilizer] | Solubility [2] [g/10 g solubilizer] | Solubility [3] [g/10 g solubilizer] |
| --- | --- | --- | --- |
| Cc1ccc(C=C2C(=O)C3(C)CCC2C3(C)C)cc1 (stereo not drawn) [4-Methylbenzylidene Camphor] | 0.50 | 0.38 | 1.10 |
| COc1ccc(C(=O)c2ccccc2)c(O)c1 [Benzophenone-3] | 0.40 | 0.20 | 0.44 |
| COc1ccc(/C=C/C(=O)OCCC(C)C)cc1 [Isoamyl Methoxycinnamate] | 0.60 | 0.70 | 1.10 |
| CC1CCC(C(C)C)C(O)C1 (stereo not drawn) [Menthol] | 1.10 | 1.05 | 4.80 |
| CCCCC(CC)COC(=O)C=Cc1ccc(OC)cc1 (stereo not drawn) [Octyl Methoxycinnamate] | 0.45 | 0.60 | 1.60 |
| Tocopherol | 0.40 | 0.50 | 0.90 |
